Here are results for three molecules from patent US7863278B2, “Isethionate salt of a selective CDK4 inhibitor” (Warner-Lambert CompanyLLC, priority 2003, dated 2011).

Like-named read-outs stand apart in the source and are kept apart here.

One data set is described as follows: water solubility. The data set is classed as physicochemical. The following applies: for solubility at 14 h: thermodynamic from solid. From the text:
The other isethionate salt forms were not evaluated for metastable solubility. […] See Table 5 for a list of HPLC conditions.

A short description of the next data set: pKa of conjugate acid. The data set is classed as physicochemical. From the text:
The free base (Formula 1) is a dibasic compound, which may form both mono- and di-acid addition salts. Its conjugate acid has pKas of 7.3 and 4.1, so comparatively strong acids are necessary for generating the di-salt. Though it may be possible to form a di-isethionate salt of the compound of Formula 1, the mono-isethionate salt appears to be more useful since it requires less counter ion.

The nature of data set [1]: bioavailability in animal studies. It counts as in vivo. From the text: . However, moisture uptake studies reveal that, even at low relative humidity (10% RH), the di-HCl salt absorbs water in an amount greater than about 2% of its mass, making it unsuitable for use in a solid drug product. […]. However, the process for preparing the mono-HCl salt yields partially crystalline drug substance, indicating potential problems with process scale-up. Other salt forms of the compound of Formula 1 are thus needed.

Another data set deals with neointima formation. Particulars: rats; cited from earlier work.

`CC(=O)c1c(C)c2cnc(Nc3ccc(N4CCNCC4)cn3)nc2n(C2CCCC2)c1=O.Cl.Cl` [di-HCl salt]: the “water solubility (in words)” value in “water solubility” was “adequate water solubility”.

Usually solubility stands for the dissolved amount per volume that the medium holds. As usually defined, the pKa is the pH at which an ionisable group is half protonated. In the case of `CC(=O)c1c(C)c2cnc(Nc3ccc(N4CCNCC4)cn3)nc2n(C2CCCC2)c1=O` [Formula 1, 6-acetyl-8-cyclopentyl-5-methyl-2-(5-piperazin-1-yl-pyridin-2-ylamino)-8H-pyrido[2,3-d]pyrimidin-7-one], the “Solubility mgA/mL” value in the data set “water solubility” (free base final pH 7.9, 14 h equilibration) turned out to be 0.009 mgA/mL. Further, the solubility at 14 h in “water solubility” (pH 7.9, water, read-out: free base solubility) was found to be 9.2 µg/mL; in “water solubility” (read-out: water solubility), 9 µg/mL. Moreover, the values for the pKa in “pKa of conjugate acid” (read-out: pKa of conjugate acid (first)) and in “pKa of conjugate acid” (read-out: pKa of conjugate acid (second)) were 7.3 and 4.1, respectively. In data set [1], the “bioavailability in animal studies” value was “low bioavailability”.

For `COc1ccc(CNc2nc(N(CCO)CCO)nc3c2ncn3C(C)C)cc1` [CVT-313], the “inhibition of neointima formation” value in the data set on neointima formation is “greater than 80%”.
